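1) Cells in 96-well plates. 2) Compound, 48 h, 5 concentrations. 3) Linear interpolation between surrounding doses. 4) Unreached endpoint = highest concentration. GI50: concentration for 50% inhibition of growth.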 Active and inactive are the calls of the source. No stated cut-off is given here; in the data, active = GI50 up to about 1.1 µM and inactive = higher.
Assays:
Experiment in all cases: growth of human tumour cells (NCI), 48 h
HCT-15 = system: HCT-15
M14 = system: M14
HOP-62 = system: HOP-62
RPMI-8226 = system: RPMI-8226
CAKI-1 = system: CAKI-1
EKVX = system: EKVX
UACC-62 = system: UACC-62
UO-31 = system: UO-31
SNB-19 = system: SNB-19
COLO 205 = system: COLO 205
A498 = system: A498
KM-20L2 = system: KM-20L2
TK-10 = system: TK-10
NCI-H23 = system: NCI-H23
HT-29 = system: HT-29
NCI/ADR-RES = system: NCI/ADR-RES
MDA-N = system: MDA-N
DU-145 = system: DU-145
SF-295 = system: SF-295
LXFL 529 = system: LXFL 529

SMILES: O=C1NC(=S)NC(=O)C1=Cc1cc2c(cc1[N+](=O)[O-])OCO2
- GI50 (HCT-15): 39.7 µM
- GI50 (M14): 77.6 µM (inactive)
- GI50 (HOP-62): > 100 µM (inactive)
- GI50 (RPMI-8226): 42.2 µM (inactive)
- GI50 (CAKI-1): 94.4 µM (inactive)
- GI50 (EKVX): > 100 µM (inactive)
- GI50 (UACC-62): > 100 µM (inactive)
- GI50 (UO-31): > 100 µM (inactive)
- GI50 (SNB-19): > 100 µM (inactive)
- GI50 (COLO 205): > 100 µM (inactive)
- GI50 (A498): > 100 µM (inactive)
- GI50 (KM-20L2): > 100 µM (inactive)
- GI50 (TK-10): > 100 µM (inactive)

SMILES: O=C(O)CCC(NC(=O)c1ccc(Nc2cnc3ccc(C(F)(F)F)cc3n2)cc1)C(=O)O (stereo unspecified)
- GI50 (NCI-H23): > 100 µM (inactive)
- GI50 (HT-29): > 100 µM (inactive)
- GI50 (NCI/ADR-RES): > 100 µM (inactive)
- GI50 (HCT-15): > 100 µM
- GI50 (M14): > 100 µM (inactive)
- GI50 (HOP-62): > 100 µM (inactive)
- GI50 (RPMI-8226): > 100 µM (inactive)
- GI50 (CAKI-1): > 100 µM (inactive)
- GI50 (EKVX): > 100 µM (inactive)
- GI50 (UACC-62): > 100 µM (inactive)
- GI50 (MDA-N): > 100 µM (inactive)
- GI50 (UO-31): > 100 µM (inactive)
- GI50 (SNB-19): > 100 µM (inactive)
- GI50 (COLO 205): > 100 µM (inactive)
- GI50 (A498): > 100 µM (inactive)
- GI50 (DU-145): > 100 µM (inactive)
- GI50 (SF-295): > 100 µM (inactive)
- GI50 (TK-10): > 100 µM (inactive)

SMILES: COc1ccc(CCN2CCC(C#N)(c3ccc(OC)c(OC)c3)CC2)cc1OC
- GI50 (NCI-H23): > 100 µM (inactive)
- GI50 (LXFL 529): > 100 µM (inactive)
- GI50 (HT-29): > 100 µM (inactive)
- GI50 (HCT-15): > 100 µM
- GI50 (M14): > 100 µM (inactive)
- GI50 (HOP-62): > 100 µM (inactive)
- GI50 (RPMI-8226): > 100 µM (inactive)
- GI50 (EKVX): > 100 µM (inactive)
- GI50 (UACC-62): > 100 µM (inactive)
- GI50 (UO-31): > 100 µM (inactive)
- GI50 (SNB-19): > 100 µM (inactive)
- GI50 (COLO 205): > 100 µM (inactive)
- GI50 (SF-295): 79.6 µM (inactive)
- GI50 (KM-20L2): > 100 µM (inactive)
- GI50 (TK-10): 76.2 µM (inactive)

SMILES: Cc1cc(=O)[nH]c(-n2[nH]c(C)c(CCO)c2=O)n1
- GI50 (NCI-H23): > 100 µM (inactive)
- GI50 (HT-29): > 100 µM (inactive)
- GI50 (NCI/ADR-RES): > 100 µM (inactive)
- GI50 (HCT-15): > 100 µM
- GI50 (M14): > 100 µM (inactive)
- GI50 (HOP-62): > 100 µM (inactive)
- GI50 (RPMI-8226): > 100 µM (inactive)
- GI50 (CAKI-1): > 100 µM (inactive)
- GI50 (EKVX): > 100 µM (inactive)
- GI50 (UACC-62): > 100 µM (inactive)
- GI50 (MDA-N): > 100 µM (inactive)
- GI50 (UO-31): > 100 µM (inactive)
- GI50 (SNB-19): > 100 µM (inactive)
- GI50 (COLO 205): > 100 µM (inactive)
- GI50 (A498): > 100 µM (inactive)
- GI50 (DU-145): > 100 µM (inactive)
- GI50 (SF-295): > 100 µM (inactive)
- GI50 (TK-10): > 100 µM (inactive)

SMILES: O=C1/C(=C/c2ccc(O)cc2)CC/C1=C\c1ccc(O)cc1
- GI50 (NCI-H23): > 100 µM (inactive)
- GI50 (HT-29): > 100 µM (inactive)
- GI50 (NCI/ADR-RES): 28.3 µM (inactive)
- GI50 (HCT-15): > 100 µM
- GI50 (M14): > 100 µM (inactive)
- GI50 (HOP-62): > 61.8 µM (inactive)
- GI50 (RPMI-8226): 49.3 µM (inactive)
- GI50 (CAKI-1): 34.5 µM (inactive)
- GI50 (EKVX): 99.8 µM (inactive)
- GI50 (UACC-62): 13.3 µM (inactive)
- GI50 (MDA-N): > 100 µM (inactive)
- GI50 (UO-31): 51.2 µM (inactive)
- GI50 (SNB-19): > 87.1 µM (inactive)
- GI50 (COLO 205): > 100 µM (inactive)
- GI50 (A498): > 33 µM (inactive)
- GI50 (DU-145): > 100 µM (inactive)
- GI50 (SF-295): > 96.4 µM (inactive)
- GI50 (TK-10): > 100 µM (inactive)

SMILES: CCN(CCCN(CC)C(=O)Nc1c(C)cccc1C)C(=O)Nc1c(C)cccc1C
- GI50 (NCI-H23): > 100 µM (inactive)
- GI50 (HT-29): > 100 µM (inactive)
- GI50 (NCI/ADR-RES): > 100 µM (inactive)
- GI50 (HCT-15): > 100 µM
- GI50 (M14): > 100 µM (inactive)
- GI50 (HOP-62): > 100 µM (inactive)
- GI50 (RPMI-8226): > 100 µM (inactive)
- GI50 (CAKI-1): > 100 µM (inactive)
- GI50 (EKVX): > 100 µM (inactive)
- GI50 (UACC-62): > 100 µM (inactive)
- GI50 (MDA-N): > 100 µM (inactive)
- GI50 (UO-31): 92.3 µM (inactive)
- GI50 (SNB-19): > 100 µM (inactive)
- GI50 (COLO 205): > 100 µM (inactive)
- GI50 (A498): > 100 µM (inactive)
- GI50 (DU-145): > 100 µM (inactive)
- GI50 (SF-295): > 100 µM (inactive)
- GI50 (TK-10): > 100 µM (inactive)

SMILES: COc1cccc(N2C(=O)C3c4[nH]c5ccc(C)cc5c4C4CCC(C)CC4C3C2=O)c1 (stereo unspecified)
- GI50 (NCI-H23): > 100 µM (inactive)
- GI50 (HT-29): > 100 µM (inactive)
- GI50 (NCI/ADR-RES): > 100 µM (inactive)
- GI50 (HCT-15): > 100 µM
- GI50 (M14): > 100 µM (inactive)
- GI50 (HOP-62): 1.4 µM (inactive)
- GI50 (RPMI-8226): > 100 µM (inactive)
- GI50 (CAKI-1): 39.5 µM (inactive)
- GI50 (EKVX): 32.6 µM (inactive)
- GI50 (UACC-62): 30.3 µM (inactive)
- GI50 (MDA-N): > 100 µM (inactive)
- GI50 (UO-31): > 100 µM (inactive)
- GI50 (SNB-19): 73.3 µM (inactive)
- GI50 (COLO 205): > 100 µM (inactive)
- GI50 (A498): 49 µM (inactive)
- GI50 (DU-145): > 100 µM (inactive)
- GI50 (SF-295): 35 µM (inactive)
- GI50 (TK-10): 36.1 µM (inactive)

SMILES: COc1ccccc1NC(=S)N/N=C/c1cccc(C)n1
- GI50 (NCI-H23): 5.83 µM (inactive)
- GI50 (HT-29): 4.17 µM (inactive)
- GI50 (NCI/ADR-RES): 3.31 µM (inactive)
- GI50 (HCT-15): 2.31 µM
- GI50 (M14): 2.18 µM (inactive)
- GI50 (HOP-62): 5.85 µM (inactive)
- GI50 (RPMI-8226): 2.11 µM (inactive)
- GI50 (CAKI-1): 4.75 µM (inactive)
- GI50 (EKVX): 4.67 µM (inactive)
- GI50 (UACC-62): 3.67 µM (inactive)
- GI50 (MDA-N): 4.17 µM (inactive)
- GI50 (UO-31): 3.57 µM (inactive)
- GI50 (SNB-19): 10.9 µM (inactive)
- GI50 (COLO 205): 1.68 µM (inactive)
- GI50 (A498): 23.6 µM (inactive)
- GI50 (DU-145): 4.29 µM (inactive)
- GI50 (SF-295): 4.32 µM (inactive)
- GI50 (TK-10): 8.99 µM (inactive)

— ChEMBL document CHEMBL1201862, “PubChem BioAssay data set” (2004)
